# Measurements published in PMC5086919, “Antileukemic Scalarane Sesterterpenoids and Meroditerpenoid from Carteriospongia (Phyllospongia) sp., Induce Apoptosis via Dual Inhibitory Effects on Topoisomerase II and Hsp90” (Scientific Reports, 2016).
# Read-outs that look alike come from different tables or passages of the source.
# Assays:
# Ca9-22 cells = test: MTT antiproliferative assay, oral Ca9-22 cells; conditions: Homo sapiens, Ca9-22, 72 h, read-out: IC50, cytotoxicity, Oral Ca9-22
# Description: (§2) Several cancer cell lines including leukemia K562, Molt 4, and HL 60 cells, prostate cancer LNCaP cells, colon cancer DLD-1 cells and breast cancer T-47D cells were used to evaluate the antiproliferative activity.
# (§3) The cell lines were obtained from the American Type Culture Collection (ATCC, Manassas, VA, USA). […] Dimethyl sulfoxide (DMSO), 3-(4,5-dimethylthiazol-2-yl)-2,5-diphenyl-tetrazolium bromide (MTT) and all other chemicals were purchased from Sigma-Aldrich (St. Louis, MO, USA).
# K562 cells = test: MTT antiproliferative assay, leukemia K562 cells; conditions: Homo sapiens, K562, 72 h, read-out: IC50, cytotoxicity, Leukemia K562
# Description: as §2, §3
# HL 60 cells = test: MTT antiproliferative assay, leukemia HL 60 cells; conditions: Homo sapiens, HL-60, 72 h, read-out: IC50, cytotoxicity, Leukemia HL 60
# Description: as §2, §3
# Molt 4 cells [1] = test: MTT antiproliferative assay, leukemia Molt 4 cells; type: cell-based; conditions: Homo sapiens
# U937 cells = test: MTT antiproliferative assay, lymphoma U937 cells; conditions: Homo sapiens, U-937, 72 h, read-out: IC50, cytotoxicity, Lymphoma U937
# DLD-1 cells = test: MTT antiproliferative assay, colon cancer DLD-1 cells; conditions: Homo sapiens, DLD-1, 72 h, read-out: IC50, cytotoxicity, Colon DLD-1
# Description: as §2, §3
# T-47D cells = test: MTT antiproliferative assay, breast cancer T-47D cells; conditions: Homo sapiens, T47D, 72 h, read-out: IC50, cytotoxicity, Breast T-47D
# Description: as §2, §3
# Cal-27 cells = test: MTT antiproliferative assay, oral Cal-27 cells; conditions: Homo sapiens, CAL-27, 72 h, read-out: IC50, cytotoxicity, Oral Cal-27
# Description: as §2, §3
# LNCaP cells = test: MTT antiproliferative assay, prostate cancer LNCaP cells; conditions: Homo sapiens, 72 h
# Description: as §2, §3
# Sup-T1 cells = test: MTT antiproliferative assay, lymphoma Sup-T1 cells; conditions: Homo sapiens, SUP-T1, 72 h, read-out: IC50, cytotoxicity, Lymphoma Sup-T1
# Molt 4 cells [2] = test: Annexin V/PI apoptosis assay; type: cell-based, human; conditions: 0, 0.0625, 0.125 and 0.25 μg/mL, 24 h, annexin-V/PI
# Experimental: The externalization of phosphatidylserine (PS) and membrane integrity were quantified using an annexin V- FITC staining kit[72]. In brief, 10^6 cells were grown in 35 mm diameter plates and were labeled with annexin V-FITC (10 μg/mL) and PI (20 μg/mL) prior to harvesting. After labeling, all plates were washed with a binding buffer and harvested. Cells were resuspended in the binding buffer at a concentration of 2 × 10^5 cells/mL before analysis by flow cytometer FACS-Calibur (Becton-Dickinson, San Jose, CA, USA) and CellQuest software. Approximately 10,000 cells were counted for each determination.
# γH2AX in Molt 4 cells = test: Western blot of γH2AX (DNA damage biomarker); type: cell-based, human; conditions: 0, 0.0625, 0.125 and 0.25 μg/mL, 24 h
# Description: (§1) The ability of Topo II to generate DNA damage in the presence of Topo II-targeting agents led to the hypothesis that an important determinant of drug sensitivity was related to the overall level of Topo II[17]. […] Such findings encouraged us to evaluate the effect of the isolates on Topo II activity. In order to confirm whether the DNA damage-induced by the isolated sesterterpenoids involved the inhibition of Topo II activity, a cell-free DNA cleavage assay using an enzyme-mediated negatively supercoiled pHOT1 plasmid DNA was applied. […] These marine terpenoids suppressed Topo II activity, resulting in the inhibition of supercoiled DNA relaxation in a dose-dependent manner (Fig. 5A). […] To determine whether the apoptotic mechanism of these compounds affects γH2AX (as a biomarker of DNA damage) induction, Western blot analysis was employed to examine the activation of γH2AX.
# Cell lysates were prepared by treating the cells for 30 min in RIPA lysis buffer, 1% Nonidet P-40, 0.5% sodium deoxycholate, 0.1% sodium dodecyl sulphate (SDS), 1 mM sodium orthovanadate, 100 μg/mL phenylmethylsulfonyl fluoride and 30 μg/mL aprotinin) (all chemicals were from Sigma)[38]. The lysates were centrifuged at 20,000 × g for 30 min, and the protein concentration in the supernatant was determined using a BCA protein assay kit (Pierce). Equal amounts of proteins were respectively separated by 7.5%, 10% or 12% of SDS-polyacrylamide gel electrophoresis and then were electrotransferred to a PVDF membrane. The membrane was blocked with a solution containing 5% non-fat dry milk TBST buffer (20 mM Tris-HCl, pH 7.4, 150 mM NaCl and 0.1% Tween 20) for 1 h and washed with TBST buffer. The protein expressions were monitored by immunoblotting using specific antibodies. These proteins were detected by an enhanced chemiluminescence kit (Pierce).
# human topoisomerase II = target: T1, human topoisomerase II (Homo sapiens, UniProt P11388); test: Cell-free topoisomerase II DNA relaxation/cleavage assay with supercoiled pHOT1 plasmid DNA; type: biochemical; conditions: for inhibition at 0.08 µg/mL: 0.08 μg/mL; for inhibition at 0.08 µg/mL / inhibition at 0.312 µg/mL / inhibition at 1.25 µg/mL / inhibition at 5 µg/mL / inhibition at 20 µg/mL: compared with control supercoiled DNA; for inhibition at 0.312 µg/mL: 0.312 μg/mL; for inhibition at 1.25 µg/mL: 1.25 μg/mL; for inhibition at 5 µg/mL: 5 μg/mL; for inhibition at 20 µg/mL: 20 μg/mL
# T1 construct: purchased Topogen
# T1 sequence (P11388 whole entry): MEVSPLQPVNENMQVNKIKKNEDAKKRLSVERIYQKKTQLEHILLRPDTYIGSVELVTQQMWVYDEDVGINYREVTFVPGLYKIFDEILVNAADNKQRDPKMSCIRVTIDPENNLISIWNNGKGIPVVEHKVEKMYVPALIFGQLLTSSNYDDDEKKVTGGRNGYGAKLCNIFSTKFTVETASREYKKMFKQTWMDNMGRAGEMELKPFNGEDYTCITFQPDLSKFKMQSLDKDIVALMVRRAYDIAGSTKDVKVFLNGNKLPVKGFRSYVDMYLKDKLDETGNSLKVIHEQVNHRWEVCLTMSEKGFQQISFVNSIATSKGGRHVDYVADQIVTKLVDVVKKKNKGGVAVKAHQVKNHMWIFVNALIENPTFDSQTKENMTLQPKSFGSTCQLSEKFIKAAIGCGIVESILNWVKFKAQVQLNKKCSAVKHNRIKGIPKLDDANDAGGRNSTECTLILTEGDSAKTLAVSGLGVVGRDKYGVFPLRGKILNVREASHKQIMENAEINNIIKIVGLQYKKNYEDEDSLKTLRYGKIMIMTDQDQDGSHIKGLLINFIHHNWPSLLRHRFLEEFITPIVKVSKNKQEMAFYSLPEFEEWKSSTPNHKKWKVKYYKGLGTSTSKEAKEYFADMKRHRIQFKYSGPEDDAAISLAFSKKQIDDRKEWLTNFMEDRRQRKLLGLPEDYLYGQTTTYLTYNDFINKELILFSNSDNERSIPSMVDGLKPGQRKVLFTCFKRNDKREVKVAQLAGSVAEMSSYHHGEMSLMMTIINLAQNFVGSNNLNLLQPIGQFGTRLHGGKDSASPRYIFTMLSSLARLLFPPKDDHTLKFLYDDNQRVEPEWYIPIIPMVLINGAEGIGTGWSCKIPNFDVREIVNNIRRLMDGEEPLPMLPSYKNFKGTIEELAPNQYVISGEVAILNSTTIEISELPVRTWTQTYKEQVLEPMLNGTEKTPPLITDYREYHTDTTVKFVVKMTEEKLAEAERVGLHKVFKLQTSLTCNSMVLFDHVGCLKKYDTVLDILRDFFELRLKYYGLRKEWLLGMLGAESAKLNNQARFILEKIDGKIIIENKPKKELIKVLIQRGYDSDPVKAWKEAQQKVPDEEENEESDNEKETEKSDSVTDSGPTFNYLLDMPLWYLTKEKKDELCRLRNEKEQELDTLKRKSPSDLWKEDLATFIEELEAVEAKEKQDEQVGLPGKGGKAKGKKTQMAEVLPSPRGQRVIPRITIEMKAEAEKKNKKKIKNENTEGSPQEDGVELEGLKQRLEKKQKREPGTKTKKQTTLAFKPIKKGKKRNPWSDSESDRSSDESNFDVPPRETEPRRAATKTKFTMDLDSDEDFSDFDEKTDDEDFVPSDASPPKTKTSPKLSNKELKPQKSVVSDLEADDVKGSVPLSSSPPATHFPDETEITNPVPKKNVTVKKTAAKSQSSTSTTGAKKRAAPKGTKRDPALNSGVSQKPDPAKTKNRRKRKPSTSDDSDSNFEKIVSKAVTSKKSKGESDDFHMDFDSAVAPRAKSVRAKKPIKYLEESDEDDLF
# Description: as §1
# The assay was performed as described previously. […] Reactions were terminated by adding 2 μL of 10% SDS to facilitate trapping the enzyme in a cleavage complex, followed by the addition of 2.5 μL of proteinase K (50 μg/mL) to digest the bound protein (incubated at 37 °C for 15 min) and finally by adding 0.1 volume of the sample loading dye. The DNA products were analyzed via electrophoresis through vertical 2% agarose gels at 2 voltage/cm in 0.5 × TAE buffer. Gels were stained with ethidium bromide and photographed using an Eagle Eye II system (Stratagene, La Jolla, CA, USA). The quantitative analysis of the DNA Topo II activity was performed as described previously.
# Molt 4 cells [3] = test: MMP disruption, JC-1 staining flow cytometry; type: cell-based, human; conditions: 0, 0.0625, 0.125 and 0.25 μg/mL, 24 h
# Experimental: These assays were performed as described previously. […] In brief, the treated cells were labeled with a specific fluorescent dye for 30 min. After labeling, cells were washed with PBS and resuspended in PBS at a concentration of 1 × 10^6 cells/mL before analysis via flow cytometry.
# [4] = test system: human Molt 4 tumor xenograft; test: Human leukemia Molt 4 tumor xenograft animal model; type: in vivo, immunodeficient athymic mice
# Description: Compounds 1 and 2 induced apoptosis in several cancer cell lines; however, the amounts isolated were insufficient for further examination of their in vivo antitumor effect. On the other hand, the amount separated from 3 was sufficient to study the in vivo anti-tumor activity by evaluating its effect on tumor growth of human leukemia Molt 4 in xenograft animal model. Molt 4 (1 × 10^6) cells were inoculated subcutaneously at the right flank of female immunodeficient athymic mice. […] The average tumor size on day 33 in the control group was 404.63 mm^3, whereas the average tumor size in compound 3-treated group was 212.10 mm^3 (Fig. 6A).
# Establishment of nude mice with xenografts was performed as described previously. Six-week-old […] immunodeficient athymic mice were purchased from the National Laboratory Animal and Research Center (Taipei, Taiwan). All of the animals were maintained under standard laboratory conditions (temperature 24–26 °C, 12–12 h dark-light circle) and fed with laboratory diet and water. This study was approved by the Animal Care and Treatment Committee of Kaohsiung Medical University (IACUC Permit Number 101136). All experiments were conducted in strict accordance with the recommendations in the Guide for the Care and Use of Laboratory Animals of the National Institutes of Health, and all efforts were made to minimize animal stress/distress. Molt 4 cells (1 × 10^6) resuspended in 0.2 mL PBS were injected s.c. into the right flank of each mouse, and tumor growth was monitored every day. Fourteen days after tumor cell injection, mice with confirmed tumor growth were randomly divided into two groups. Compound 3 (1.14 μg/g) was intraperitoneally administered to the treatment group, and the control group received solvent only. Compound 3 was administrated every other day for 33 days. Animals were sacrificed by carbon dioxide. Tumor size was measured three times a week using calipers and tumor volumes were calculated according to the standard formula: width^2 × length/2.
# [5] = 72 h, read-out: IC50, cytotoxicity, Leukemia Molt 4
# [6] = read-out: IC50, cytotoxicity, Prostate LNCaP (class symbol)
SMILES,inhibition at 0.08 µg/mL (human topoisomerase II) [%],inhibition at 0.312 µg/mL (human topoisomerase II) [%],inhibition at 1.25 µg/mL (human topoisomerase II) [%],inhibition at 5 µg/mL (human topoisomerase II) [%],inhibition at 20 µg/mL (human topoisomerase II) [%],IC50 (Ca9-22 cells) [µg/mL],IC50 (K562 cells) [µg/mL],IC50 (HL 60 cells) [µg/mL],IC50 (Molt 4 cells [1]; [5]) [µg/mL],IC50 (U937 cells) [µg/mL],IC50 (DLD-1 cells) [µg/mL],IC50 (T-47D cells) [µg/mL],IC50 (Cal-27 cells) [µg/mL],IC50 (Sup-T1 cells) [µg/mL],apoptotic population of Molt 4 cells (Molt 4 cells [2]),expression of γH2AX (γH2AX in Molt 4 cells),IC50 (LNCaP cells; [6]) [µg/mL],mitochondrial membrane potential (Molt 4 cells [3]),also measured
"COc1cccc2c1C(=O)c1c(O)c3c(c(O)c1C2=O)C[C@@](O)(C(=O)CO)C[C@@H]3O[C@H]1C[C@H](N)[C@H](O)[C@H](C)O1 [Doxorubicin, reference compound]",–,–,–,–,–,0.05,0.2,0.02,0.01,0.21,1.28,0.08,0.01,0.02,–,–,–,–,"IC50 (LNCaP cells; read-out: IC50, cytotoxicity, Prostate LNCaP): 2.47 µg/mL"
"COc1cc([C@@H]2c3cc4c(cc3[C@@H](O[C@@H]3O[C@@H]5CO[C@@H](C)O[C@H]5[C@H](O)[C@H]3O)[C@H]3COC(=O)[C@H]23)OCO4)cc(OC)c1O [etoposide, reference compound]",–,–,–,–,–,–,–,–,–,–,–,–,–,–,–,–,–,–,"DNA product with topo II poison (human topoisomerase II; 500 μM, positive control, Lane 16): linear DNA strand was observed"
"C=CCNC1=C2C[C@@H](C)C[C@H](OC)[C@H](O)[C@@H](C)/C=C(\C)[C@H](OC(N)=O)[C@@H](OC)/C=C\C=C(/C)C(=O)NC(=CC1=O)C2=O [Compound 17-AAG, 17-allylamine-17-demethoxygeldanamycin, reference compound]",–,–,–,–,–,–,–,–,–,–,–,–,–,–,–,–,–,–,"IC50 (Molt 4 cells [1]; 24 h, molar value in brackets, read-out: IC50, suppression in cell growth, Molt 4): 7.2 µM; IC50 (Molt 4 cells [1]; 24 h, read-out: IC50, suppression in cell growth, Molt 4): 4.2 µg/mL"

# Further lines, with some results ahead:
inhibition at 0.08 µg/mL (human topoisomerase II) [%],inhibition at 0.312 µg/mL (human topoisomerase II) [%],inhibition at 1.25 µg/mL (human topoisomerase II) [%],inhibition at 5 µg/mL (human topoisomerase II) [%],inhibition at 20 µg/mL (human topoisomerase II) [%],SMILES,IC50 (Ca9-22 cells) [µg/mL],IC50 (K562 cells) [µg/mL],IC50 (HL 60 cells) [µg/mL],IC50 (Molt 4 cells [1]; [5]) [µg/mL],IC50 (U937 cells) [µg/mL],IC50 (DLD-1 cells) [µg/mL],IC50 (T-47D cells) [µg/mL],IC50 (Cal-27 cells) [µg/mL],IC50 (Sup-T1 cells) [µg/mL],apoptotic population of Molt 4 cells (Molt 4 cells [2]),expression of γH2AX (γH2AX in Molt 4 cells),IC50 (LNCaP cells; [6]) [µg/mL],mitochondrial membrane potential (Molt 4 cells [3]),also measured
12,23,36,90,99,"CC[C@@H](O)CC(=O)O[C@@H]1C[C@@H]2[C@@]3(C)CCC[C@](C)(CC)[C@@H]3CC[C@@]2(C)[C@@H]2CC=C(C(C)=O)[C@H](C=O)[C@@]12C (relative stereo) [Compound 2, 12β-(3′β-hydroxy-pentanoyloxy)-20,24-dimethyl-24-oxo-scalara-16-en-25-al]",1.48,0.35,0.22,0.3,0.61,1.71,1.87,3.17,0.42,increase in the apoptotic population,significantly enhanced the expression of γH2AX in a dose-dependent manner,> 20,disruption in mitochondrial membrane potential,–
7,13,28,90,98,"CC(C)=CCC/C(C)=C/CC/C(C)=C/CC/C(C)=C/CC1=CC(=O)C=CC1=O [Compound 3, 2-tetraprenil-1,4-benzochinone]",0.97,0.7,0.42,0.34,0.65,15.4,1.06,0.51,0.33,increase in the apoptotic population,activation of DNA damage was not observed,> 20,disruption in mitochondrial membrane potential,"mice body weights versus control group ([4]; 1.14 μg/g intraperitoneal, 33 days): no significant difference; average tumor size on day 33 ([4]; 1.14 μg/g intraperitoneal, every other day, 33 days): 212.10 mm^3; suppression of the volume of xenograft tumor growth compared with the control ([4]; Molt 4 xenograft): 47.58%; IC50 (human topoisomerase II; cell-free system, read-out: IC50, inhibition of topo II activities (converted)): 1130 nM"
